Among the data in patent publication US20120277517A1, “Formulation and Methods for Enhanced Interventional Image-Guided Therapy of Cancer” (The Johns Hopkins University, priority 2011, published 2012) are degradation of doxorubicin values, retold here.

The data set concerns Hep3B cells. Put plainly: Intratumoral injection with or without AMF hyperthermia in mice with subcutaneous Hep3B tumors. Type of data set: in vivo, mouse. As to conditions: may be attributed to hyperthermia.

Source text: In another exemplary experiment, Hep3B cells were implanted by subcutaneous injection of 3×10^6 Hep3B cells suspended in PBS into the right flank of each mouse that was randomly assigned into 2 main groups (heated and unheated) that were further divided into three subgroups. When tumors reached 100 mm^3, these received intratumoral injections of T-C formulation, BNF particles alone, or PBS (3 subgroups). The heated group (9 mice) received AMF hyperthermia. Two mice from each subgroup were euthanized 24 hours following treatment, and the remaining one was euthanized when tumor in the PBS group reached 2000 mm^3.
For AMF exposure, each mouse was placed in a chamber constructed from a standard polypropylene 50-mL conical centrifuge tube that was positioned in the center of the solenoid coil. Prior to AMF therapy, each mouse received intraperitoneal injections of ketamine/xylazine (anesthesia) at an approximate dose of a 200-μL injection. Each mouse was placed in the coil for 30 min and exposed to one of the following AMF amplitudes: 0, 24, or 60 kA/m. […] During AMF exposure, mice were placed into the AMF inductor coil and therefore exposed to maximum magnetic field, corresponding to the measured (by field probe) field. Rectal and tumor temperatures were measured at one-second intervals for each mouse exposed to AMF using fiber optic temperature probes.

Take `COc1cccc2c1C(=O)c1c(O)c3c(c(O)c1C2=O)C[C@@](O)(C(=O)CO)C[C@@H]3O[C@H]1C[C@H](N)[C@H](O)[C@H](C)O1` [doxorubicin]: the degradation of doxorubicin is 7-8%.
